Results on 17 compounds are retold here after patent US10966999B2, “3′3′ cyclic dinucleotides with phosphonate bond activating the sting adaptor protein” (INSTITUTE OF ORGANIC CHEMISTRY AND BIOCHEMISTRY ASCR, V.V.I., priority 2017, dated 2021).

For one experiment, the target named is T1, WT STING (Homo sapiens, UniProt Q86WV6, H232R).
T1 construct: encoded truncated human WT STING or AQ STING (amino acid residues 140-343) with N-terminal 8×His and SUMO tag; 8xHis-SUMO (N, cleaved yes); made in house; host or cells: E. coli Rosetta-gami B (DE3)
Nature of the experiment: Differential Scanning Fluorimetry (DSF) with WT STING. It counts as binding. The conditions noted are these: thermal shift vs STING apoprotein; 150 μM CDN; 0.1 mg/ml protein; SYPRO Orange. Here is the method:
(§1) WT STING and AQ STING Proteins
(§2) Purified PCR products were cleaved with restriction enzymes BamHI (cat. #R0136S, NEB, Ipswich, USA) and NotI (cat. #R0189S, NEB, Ipswich, USA) and cloned into the pSUMO vector linearized with the identical enzymes.
(§3) DNase I (cat. #D5025, Sigma Aldrich, Czech Republic) and RNase A (cat. #R6513, Sigma Aldrich, Czech Republic) were added (final concentration 50 μg/ml) together with MgCl2 (final concentration 5 mmol·l^−1) to the homogenate and bacteria were lysed using French Press G-M™ High-Pressure Cell Press Homogenizer (1500 psi, 3 cycles). […] The resin was poured into a chromatography column, washed with 50 ml buffer A (50 mmol·l^−1 TrisCl (pH 8.0), 800 mmol·l^−1 NaCl, 3 mmol·l^−1 3-mercaptol; 10% glycerol; 20 mmol·l^−1 imidazole) and 8-His-SUMO tagged STING proteins were eluted with 15 ml buffer A containing 300 mmol·l^−1 imidazole. […] Proteins were concentrated with Amicon® Ultra-15 10 K device (cat. #UFC901008, Merck Millipore, Billerica, USA) and flash frozen in liquid N2.
(§4) Differential Scanning Fluorimetry (DSF) with WT STING and AQ STING
(§5) 20 μL solutions of the reaction mixtures were pipetted in triplicates into 96 well optical reaction plates and thermal denaturation of samples were performed on real time PCR cycler (LightCycler R 480 Instrument II—Roche, Basel, Switzerland). The first derivative of the thermal denaturation curves was performed to calculate denaturing temperatures of STING-CDN complexes and STING apoproteins. The thermal shift for each CDN was calculated by subtracting the average denaturing temperature of STING apoprotein from the average denaturing temperature of STING CDN complex.
On the technique in general: In DSF a fluorescence change marks the thermal transition of the protein.

Another experiment deals with T2, AQ STING (G230A-R293Q) (Homo sapiens, UniProt Q86WV6, G230A/H232R/R293Q).
T2 construct: encoded truncated human WT STING or AQ STING (amino acid residues 140-343) with N-terminal 8×His and SUMO tag; 8xHis-SUMO (N, cleaved yes); made in house; host or cells: E. coli Rosetta-gami B (DE3)
Description: Differential Scanning Fluorimetry (DSF) with AQ STING. It counts as binding. The conditions noted are these: thermal shift vs STING apoprotein; 150 μM CDN; 0.1 mg/ml protein; SYPRO Orange. Here is the method:
as §1, §2, §3, §4, §5

The target in experiment [1] is T3, human wild type STING (WT STING) (Homo sapiens, UniProt Q86WV6, H232R).
T3 construct: host or cells: 293T (ATCC CRL-3216), stably transfected, with a 4xISRE firefly luciferase reporter
Nature of the experiment: Digitonin assay using 293T wtSTING-FL reporter cells. It counts as cell-based. The conditions noted are these: 293T wtSTING-FL cells; ISRE firefly luciferase reporter; 30 min in Digitonin buffer, then 5 hours; 8-point dose-response curve. An excerpt: ISRE Reporter Plasmid (pGL64.27-4×ISRE)
Two complementary oligonucleotides of the sequence […] […] […] […] […] The oligonucleotides were mixed in equal molar amounts, hybridized, and cleaved by restriction endonucleases HindIII (cat. #. R0104S, NEB, Ipswich, USA) and BglII (cat. #R0144S, NEB, Ipswich, USA). Ultimately, they were ligated into plasmid pGL4.27 (cat. #E6651, Promega, Madison, USA) linearized with the same enzymes. As result the sequence with four ISRE sites was placed upstream of the minimum promoter of firefly luciferase reporter gene.
After 5 minutes incubation at room temperature (RT), 250 μL of the mixture was added dropwise to the cells in one well. Cells were incubated 36 hours at 37° C. with 5% CO2, and then detached with 0.05% Trypsin and 0.22 g/L EDTA (both cat. #L0941, Biowest, Riverside, USA).
Transfected cells were seeded onto poly-D-lysine coated six well plates at density 50,000 cells per 1 cm^2 in DMEM medium with high glucose containing 10% heat inactivated FBS, 30 μg/mL blasticidin (cat. #ant-bl-05, InvivoGen, San Diego, USA), 0.06 mg/ml Penicillin G and 0.1 mg/ml Streptomycin Sulfate (both cat. #. L0018, Biowest, Riverside, USA). The medium was replenished every 3-4 days until visible colonies of cells resistant to blasticidin were formed.
Blasticidin resistant cells stably expressing WT STING were further transfected with pGL64.27-4×ISRE plasmid following the same procedure as described above. […] Homogeneous culture of stably double transfected cells was prepared by limiting dilution of cells in 96 well plates and wells with cells were selected that originated from a single cell.
The medium was removed next day and three fold serial dilutions of compounds in Digitonin buffer containing 50 mmol·l^−1 HEPES (cat. #H3375, Sigma Aldrich, Czech Republic) pH 7.0, 100 mmol·l^−1 KCl, 3 mmol·l^−1 MgCl2, 0.1 mmol·l^−1 DTT (cat. #D0632, Sigma Aldrich, Czech Republic), 85 mmol·l^−1 Sucrose (cat. #S7903, Sigma Aldrich, Czech Republic), 0.2% BSA (cat. #A2153, Sigma Aldrich, Czech Republic), 1 mmol·l^−1 ATP (cat. #A1852, Sigma Aldrich, Czech Republic), 0.1 mmol·l^−1 GTP (cat. #G8877, Sigma Aldrich, Czech Republic), and 10 μg/mL Digitonin A (cat. #D141, Sigma Aldrich, Czech Republic) were added to the cells. The buffer was removed after 30 minutes incubation at 37° C. with 5% CO2, the cells were washed once with 100 μl of cultivation medium, and 100 μl of medium was added to each well. The plates with cells were incubated for 5 hours at 37° C. with 5% CO2, 50 μl of the medium was removed and 30 μl of ONE-Glo™ Luciferase Assay System reagent (cat. #E6120, Promega, Madison, USA) was added to each well. Luminescence was read on Synergy H1 (Biotek, Winooski, USA).
(In general: A reporter such as luciferase makes a cellular process visible.)

One may read the ΔTm as the change in melting temperature against a reference sample. As a reminder, the EC50 is the concentration needed to bring the measured effect to its halfway point.

T3 sequence (Q86WV6 whole entry H232R): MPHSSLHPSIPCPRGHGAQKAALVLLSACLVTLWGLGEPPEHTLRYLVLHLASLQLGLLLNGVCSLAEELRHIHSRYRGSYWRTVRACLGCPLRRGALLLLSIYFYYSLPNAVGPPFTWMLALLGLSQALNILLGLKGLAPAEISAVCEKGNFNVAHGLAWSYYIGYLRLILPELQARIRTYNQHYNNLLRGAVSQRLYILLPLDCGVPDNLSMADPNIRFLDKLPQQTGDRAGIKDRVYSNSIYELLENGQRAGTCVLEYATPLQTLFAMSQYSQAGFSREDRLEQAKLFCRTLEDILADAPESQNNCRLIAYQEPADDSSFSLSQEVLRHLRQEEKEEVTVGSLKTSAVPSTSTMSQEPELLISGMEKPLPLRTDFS
T2 sequence (Q86WV6 140-343 G230A/H232R/R293Q): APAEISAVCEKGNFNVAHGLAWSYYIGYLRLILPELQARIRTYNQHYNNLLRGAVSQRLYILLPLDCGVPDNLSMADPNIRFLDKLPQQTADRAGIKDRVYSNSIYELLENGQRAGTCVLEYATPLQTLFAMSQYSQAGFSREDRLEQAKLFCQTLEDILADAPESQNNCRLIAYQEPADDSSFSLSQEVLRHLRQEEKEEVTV
T1 sequence (Q86WV6 140-343 H232R): as the sequence (Q86WV6 140-343 G230A/H232R/R293Q) above, with A91G, Q154R counted along it

Take `Nc1ncnc2c1ccn2[C@@H]1O[C@@H]2COP(=O)(O)OC3C(O)[C@H](n4cnc5c(N)ncnc54)O[C@@H]3OCP(=O)(O)OC2C1O` (stereo partly drawn) [Compound 50]: the ΔTm at 150 µM on WT STING was 0.4 °C; at AQ STING (G230A-R293Q), 2 °C. Moreover, in experiment [1], the EC50 was 8600 nM.
In the case of `Nc1nc2c(ncn2[C@@H]2O[C@@H]3OCP(=O)(O)OC4C(O)[C@H](n5cnc6c(N)ncnc65)O[C@@H]4COP(=O)(O)OC3C2O)c(=O)[nH]1` (stereo partly drawn) [Compound 37], the ΔTm at 150 µM on WT STING is 7.6 °C; at AQ STING (G230A-R293Q) it was 15.9 °C. The EC50 in experiment [1] stood at 5 nM.
As to `Nc1nc2c(nnn2[C@@H]2O[C@@H]3OCP(=O)(O)OC4C(O)[C@H](n5cnc6c(N)ncnc65)O[C@@H]4COP(=O)(O)OC3C2O)c(=O)[nH]1` (stereo partly drawn) [Compound 54], the ΔTm at 150 µM on WT STING came out at 3.9 °C; at AQ STING (G230A-R293Q), 12.2 °C. Also, in experiment [1], the EC50 was 60 nM.
For `Nc1ncc2ncn([C@@H]3O[C@@H]4COP(=O)(O)OC5C(O)[C@H](n6cnc7c(N)ncnc76)O[C@@H]5OCP(=O)(O)OC4C3O)c2n1` (stereo partly drawn) [Compound 42] the same measures were 0.7 °C, 6.6 °C and 600 nM.
`Nc1ncnc2c1ncn2[C@@H]1O[C@@H]2OCP(=O)(O)OC3C(F)[C@H](n4cnc5c(N)nc(F)nc54)O[C@@H]3COP(=O)(O)OC2C1O` (stereo partly drawn) [Compound 53]: the ΔTm at 150 µM on WT STING is 3 °C; at AQ STING (G230A-R293Q), 8.8 °C. In addition, the EC50 in experiment [1] stood at 900 nM.
The corresponding values for `Nc1ncnc2c1ncn2[C@@H]1O[C@@H]2OCP(=O)(O)OC3C(O)[C@H](n4cnc5c(N)ncnc54)O[C@@H]3OCP(=O)(O)OC2C1O` (stereo partly drawn) [Compound 31, (2R,3R,3aS,7aR,9R,10R,10aS,14aR)-2,9-bis(6-amino-9H-purin-9-yl)-3,5,10,12-tetrahydroxydecahydrodifuro[2,3-e:2′,3′-k][1,4,7,10]tetraoxa[2,8]diphosphacyclododecine 5,12-dioxide] are 0.1 °C, 2.5 °C and 19200 nM.
Take `Nc1ncnc2c1ncn2[C@@H]1O[C@@H]2OCP(=O)(O)OC3C(O)[C@H](n4cnc5c(N)ncnc54)O[C@@H]3COP(=O)(O)OC2C1O` (single isomer, unassigned) [Compound 32]: the ΔTm at 150 µM stood at 0.8 °C at WT STING and 6.4 °C at AQ STING (G230A-R293Q). Moreover, the EC50 in experiment [1] amounted to 1200 nM.
The corresponding values for `Nc1nc2c(ncn2[C@@H]2O[C@@H]3OCP(=O)(O)OC4C(O)[C@H](n5cnc6c(=O)[nH]c(N)nc65)O[C@@H]4OCP(=O)(O)OC3C2O)c(=O)[nH]1` (stereo partly drawn) [Compound 36] are 0.6 °C, 5.6 °C and 8100 nM.
For the compound `Nc1nc2c(ncn2[C@@H]2O[C@@H]3COCP(=O)(O)OC4C(F)[C@H](n5cnc6c(N)ncnc65)O[C@@H]4COP(=O)(O)OC3C2O)c(=O)[nH]1` (stereo partly drawn) [Compound 35, 2-amino-9-((2R,3R,3aS,7aR,9R,10R,10aR,15aR)-9-(6-amino-9H-purin-9-yl)-10-fluoro-3,5,12-trihydroxy-5,12-dioxidodecahydro-2H-difuro[2,3-e:2′,3′-l][1,3,7,10]tetraoxa[2,8]diphosphacyclotridecin-2-yl)-1,9-dihydro-6H-purin-6-one], the ΔTm at 150 µM on WT STING came out at 2.3 °C; on AQ STING (G230A-R293Q), 9 °C. Further, in experiment [1], the EC50 came out at 2400 nM.
For `Nc1nc(Cl)c2ncn([C@@H]3O[C@@H]4COP(=O)(O)OC5C(O)[C@H](n6cnc7c(N)ncnc76)O[C@@H]5OCP(=O)(O)OC4C3O)c2n1` (stereo partly drawn) [Compound 40], the ΔTm at 150 µM is 0.4 °C on WT STING and 2.1 °C on AQ STING (G230A-R293Q). In addition, the EC50 in experiment [1] came to 7500 nM.
Regarding `Nc1ncnc2c1ncn2[C@@H]1O[C@@H]2COP(=O)(O)OC3C(O)[C@H](n4cnc5c(N)ncnc54)O[C@@H]3OCP(=O)(O)OC2C1N` (stereo partly drawn) [Compound 47], the ΔTm at 150 µM amounted to 0.1 °C on WT STING and 2.1 °C at AQ STING (G230A-R293Q). Also, the EC50 in experiment [1] worked out at 20800 nM.
With `Nc1ncnc2c1ncn2[C@@H]1O[C@@H]2COCP(=O)(O)OC3C(F)[C@H](n4cnc5c(N)ncnc54)O[C@@H]3COP(=O)(O)OC2C1O` (stereo partly drawn) [Compound 34, (2R,3R,3aS,7aR,9R,10R,10aR,15aR)-2,9-bis(6-amino-9H-purin-9-yl)-10-fluoro-3,5,12-trihydroxydecahydro-2H-difuro[2,3-e:2′,3′-1][1,3,7,10]tetraoxa[2,8]diphosphacyclotridecine 5,12-dioxide], the ΔTm at 150 µM amounted to 0.2 °C on WT STING and 4.3 °C on AQ STING (G230A-R293Q). Besides, the EC50 in experiment [1] was found to be 19600 nM.
In the case of `Nc1nc2c(ccn2[C@@H]2O[C@@H]3COP(=O)(O)OC4C(O)[C@H](n5cnc6c(N)ncnc65)O[C@@H]4OCP(=O)(O)OC3C2O)c(=O)[nH]1` (stereo partly drawn) [Compound 43], the ΔTm at 150 µM is 0.6 °C on WT STING and 3.3 °C at AQ STING (G230A-R293Q). For the same compound, in experiment [1], the EC50 amounted to 4700 nM.
`CSc1nc(N)nc2c1ncn2[C@@H]1O[C@@H]2COP(=O)(O)OC3C(O)[C@H](n4cnc5c(N)ncnc54)O[C@@H]3OCP(=O)(O)OC2C1O` (stereo partly drawn) [Compound 45]: the ΔTm at 150 µM on WT STING was determined as 0 °C; at AQ STING (G230A-R293Q) it was 1.1 °C. Further, the EC50 in experiment [1] worked out at 20800 nM.
“(2R,3R,3aS,7aR,9R,10R,10aR,14aR)-2,9-bis(6-amino-9H-purin-9-yl)-10-fluoro-3,5,12-trihydroxydecahydrodifuro[3,2-d:3′,2′-i][1,3,6,9]tetraoxa[2,8]diphosphacyclododecine 5,12-dioxide [Compound 33]”: the “DSF ΔTm WT STING” value at WT STING came out at 5.7 °C. In addition, the “DSF ΔTm AQ STING” value at AQ STING (G230A-R293Q) came out at 12.0 °C. For the same compound, the EC50 in experiment [1] came to 110 nM.
`CNc1ncnc2c1ncn2[C@@H]1O[C@@H]2COP(=O)(O)OC3C(O)[C@H](n4cnc5c(N)ncnc54)O[C@@H]3OCP(=O)(O)OC2C1O` (stereo partly drawn) [Compound 48]: the ΔTm at 150 µM at WT STING is 0.6 °C; on AQ STING (G230A-R293Q), 4.4 °C. For the same compound, the EC50 in experiment [1] was determined as 1500 nM.
In the case of `Nc1nc2c(ncn2[C@@H]2O[C@@H]3COP(=O)(O)O[C@@H]4[C@H](O)[C@@H](COP(=O)(O)O[C@@H]2[C@@H]3O)O[C@H]4n2cnc3c(N)ncnc32)c(=O)[nH]1` [2′2′-cGAMP, reference compound], the “DSF ΔTm WT STING” value on WT STING was 11.5 °C. Moreover, the “DSF ΔTm AQ STING” value on AQ STING (G230A-R293Q) came to 19.4 °C. In addition, the EC50 in experiment [1] came out at 30 nM.
